{
  "source": "paper PMC8587043",
  "about": "“An Investigation into the Interaction between Double Hydroxide-Based Antioxidant Benzophenone Derivatives and Cyclooxygenase 2” (Molecules, 2021)",
  "tested_on": "EA.hy926 cells",
  "assay": "LDH, MDA, ROS and SOD in H2O2-treated cells",
  "type": "cell-based, human",
  "details": "pretreated 24 h, then 400 μmol·L^−1 H2O2 for 4 h; p < 0.01",
  "method": "In the course of oxidative stress, the balance between oxidation and antioxidant activity of cells was disturbed, and the levels of ROS, malondialdehyde (MDA) and lactate dehydrogenase (LDH) increased, while the activity of superoxide dismutase (SOD) enzyme in cells decreased.\nCells were dispensed into 24-well plate wells for 24 h and pretreated with target compound SC2 (5, 0.1, 0.05 µmol·L^−1) or the positive controls (10 µmol·L^−1) for 24 h, followed by exposure to 400 μmol·L^−1 H2O2 for 4 h. The cells were collected and the activities of LDH, MDA, SOD and ROS were determined according to the kits’ instructions.",
  "data": [
    {"compound": "CC(C)(C)c1ccc(C(=O)c2c(Cl)cc(O)c(O)c2O)cc1", "note": "[SC2]", "values": [
      {"measurement": "LDH level compared with model group", "result": "significantly reduced"},
      {"measurement": "MDA level compared with model group", "result": "significantly reduced"},
      {"measurement": "ROS level compared with model group", "result": "significantly reduced"},
      {"measurement": "SOD activity compared with model group", "result": "significantly increased"}
    ]}
  ]
}
